# In patent US20090318485A1, “NOVEL INHIBITORS OF RHO KINASE” (KALYPSYS, INC., priority 2006, published 2009):
# How the values were obtained:
# [1] = molecular target: T1, recombinant N-terminal GST-tagged human Rho kinase 1 (ROCK1, amino acids 1-535) (Homo sapiens, UniProt Q13464); experiment: In vitro Rho kinase assay (luciferase-based ATP consumption), ROCK1; type: biochemical; settings: 3 μM ATP, S6 peptide substrate, 30° C. for 2 hours; read-out: ROCK 1 IC50
# T1 construct: human Rho kinase 1 (ROCK1, amino acids 1-535, Invitrogen Inc); purchased Invitrogen Inc. PV-3691
# T1 sequence (Q13464 1-535): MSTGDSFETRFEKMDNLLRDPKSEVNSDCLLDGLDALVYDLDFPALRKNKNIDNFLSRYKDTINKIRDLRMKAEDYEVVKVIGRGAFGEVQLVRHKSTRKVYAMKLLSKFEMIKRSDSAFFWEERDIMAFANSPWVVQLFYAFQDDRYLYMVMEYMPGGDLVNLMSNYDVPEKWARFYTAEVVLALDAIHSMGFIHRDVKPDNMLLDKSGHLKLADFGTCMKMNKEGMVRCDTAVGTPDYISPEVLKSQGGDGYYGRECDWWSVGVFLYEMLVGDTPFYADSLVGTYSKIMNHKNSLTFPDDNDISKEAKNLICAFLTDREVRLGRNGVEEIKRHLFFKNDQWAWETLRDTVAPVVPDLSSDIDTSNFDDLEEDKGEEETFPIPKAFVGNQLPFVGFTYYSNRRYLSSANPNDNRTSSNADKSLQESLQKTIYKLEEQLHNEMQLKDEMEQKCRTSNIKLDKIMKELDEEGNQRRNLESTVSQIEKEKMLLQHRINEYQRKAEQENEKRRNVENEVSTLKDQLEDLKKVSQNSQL
# Experimental: (§1) In Vitro Rho Kinase Assay
# (§2) Rho kinase biochemical assays described below depend on firefly luciferase-based, indirect measurement of total ATP consumption by the kinase following incubation with substrate and ATP. […] The plate is centrifuged for 30 seconds at approximately 200×g. 240 nl of test compound in DMSO is dispensed to each well by passive pin transfer. The lag phase of this in vitro kinase reaction permits addition of compounds soon after the reaction initiates. The reaction is allowed to incubate at 30° C. for 2 hours. The assay plates are sealed and maintained in a humidified environment. […] After an additional 10 minute incubation at room temperature (about 22° C.), luminescence activity is measured on a Molecular Devices Analyst multi-mode plate reader or other suitable plate reader. Kinase inhibition results in less ATP consumption, and therefore increased luminescence signal. Negative control activity is measured with DMSO lacking any test compound. The positive control is 2-methyl-1-(4-methylisoquinolin-5-ylsulfonyl)perhydro-1,4-diazepine hydrochloride (aka H-1152P, HCl salt). Efficacy is measured as a percentage of positive control activity.
# [2] = molecular target: T2, recombinant N-terminal GST-tagged human Rho kinase 2 (ROCK2, amino acids 1-552) (Homo sapiens, UniProt O75116); experiment: In vitro Rho kinase assay (luciferase-based ATP consumption), ROCK2; type: biochemical; settings: 3 μM ATP, S6 peptide substrate, 30° C. for 2 hours; read-out: ROCK 2 IC50
# T2 construct: human Rho kinase 2 (ROCK2, amino acids 1-552, Invitrogen Inc); purchased Invitrogen Inc. PV3759
# T2 sequence (O75116 1-552): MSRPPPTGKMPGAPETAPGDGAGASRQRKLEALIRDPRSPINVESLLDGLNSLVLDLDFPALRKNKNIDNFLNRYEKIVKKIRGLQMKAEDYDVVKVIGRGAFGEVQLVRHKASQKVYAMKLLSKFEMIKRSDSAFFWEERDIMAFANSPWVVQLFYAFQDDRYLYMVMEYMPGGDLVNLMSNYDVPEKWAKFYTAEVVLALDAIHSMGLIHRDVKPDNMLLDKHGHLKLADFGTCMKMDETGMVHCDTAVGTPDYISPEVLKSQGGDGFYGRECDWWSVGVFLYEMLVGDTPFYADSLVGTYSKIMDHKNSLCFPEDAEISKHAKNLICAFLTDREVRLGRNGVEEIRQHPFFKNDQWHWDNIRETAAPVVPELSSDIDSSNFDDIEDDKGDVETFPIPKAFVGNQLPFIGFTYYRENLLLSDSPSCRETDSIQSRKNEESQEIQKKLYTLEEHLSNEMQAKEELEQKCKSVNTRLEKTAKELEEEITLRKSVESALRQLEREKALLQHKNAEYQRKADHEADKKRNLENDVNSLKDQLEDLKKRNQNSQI
# Experimental: as §1, §2
Structure (SMILES),IC50 [1],IC50 [2]
CC(C)(CO)CNc1nc(-c2ccncc2)cnc1N [Example 6],≤ 5 µM,≤ 5 µM
Cc1cc(C)c2c(N)c(C(N)=O)sc2n1 [Example 2],≤ 5 µM,≤ 5 µM
C=CCN(CC=C)S(=O)(=O)c1ccc2nc(N)sc2c1 [Example 9],≤ 5 µM,≤ 5 µM
CSc1nc(-c2ccncc2)nc(N)c1C#N [Example 5],≤ 5 µM,≤ 5 µM
CC(C)c1cc2cc(/C=C/C(=O)O)c(O)cc2o1 [Example 3],≤ 5 µM,≤ 5 µM
CC1CCC(C(=O)NC(C(=O)Nc2ccncc2)C(C)C)CC1 (stereo not drawn) [Example 13],≤ 5 µM,≤ 5 µM
CC(CCc1ccc(O)cc1)Nc1ccc2[nH]ncc2c1 (stereo not drawn) [Example 7],≤ 5 µM,> 5 µM
Cc1cc(=O)oc2cc(OC(C)C(=O)Nc3nccs3)ccc12 (stereo not drawn) [Example 10],> 5 µM,
CC(OC(=O)c1ccc(O)cc1)C(=O)Nc1ccc(Cl)c(Cl)c1 (stereo not drawn) [Example 8],≤ 5 µM,≤ 5 µM
CCOC(=O)c1nnn(-c2nonc2N)c1-c1ccccc1Cl [Example 12],> 5 µM,> 5 µM

# Next, values leading:
IC50 [1],IC50 [2],Structure (SMILES)
≤ 5 µM,≤ 5 µM,O=C1NC(=Cc2ccc(O)c(Br)c2)C(=O)N1Cc1ccccc1F [Example 11]
≤ 5 µM,≤ 5 µM,Clc1ccc(Cn2cc(-c3ccncc3)cn2)c(Cl)c1 [Example 15]
> 5 µM,≤ 5 µM,CN(C)CCN(Cc1ccccc1)Cc1cc(-c2ccnc3cc(Cl)ccc23)ccc1O [Example 4]
≤ 5 µM,≤ 5 µM,C=CCc1cccc2cc(C(N)=O)c(=N)oc12 [Example 1]
